# Calls of active or inactive are those of the source.
# What was measured:
# [1] = target: Induced myeloid leukemia cell differentiation protein Mcl-1 (Homo sapiens, UniProt Q07820); format: functional
# Cytochrome P450 3A4 = Cytochrome P450 3A4 (Homo sapiens, UniProt P08684);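 also: CYP3A4 tested as one member of a cytochrome P450 panel screen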
# [2] = Shn3 3'UTR reporter inhibitors, dose response, cell-based, Clone20 osteoblasts, firefly luciferase, cherry-picked (AID 624132); format: functional;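 also: firefly luciferase luminescence from reporter carrying the Shn3 3'UTR in osteoblasts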
# [3] = HepG2 cell cytotoxicity, dose response, cytotoxicity control for Shn3 inhibitor project, CellTiter-Glo, cherry-picked (AID 624134); format: functional, cell-based
# [4] = control 3'UTR Renilla luciferase suppression, dose response, counter-screen for Shn3 inhibitor project, cell-based, Clone20-Shn3RL, cherry-picked (AID 624133); format: functional
# Protein skinhead-1 = target: T1, Protein skinhead-1 (Caenorhabditis elegans, UniProt P34707); format: functional
# T1 sequence (P34707 whole entry): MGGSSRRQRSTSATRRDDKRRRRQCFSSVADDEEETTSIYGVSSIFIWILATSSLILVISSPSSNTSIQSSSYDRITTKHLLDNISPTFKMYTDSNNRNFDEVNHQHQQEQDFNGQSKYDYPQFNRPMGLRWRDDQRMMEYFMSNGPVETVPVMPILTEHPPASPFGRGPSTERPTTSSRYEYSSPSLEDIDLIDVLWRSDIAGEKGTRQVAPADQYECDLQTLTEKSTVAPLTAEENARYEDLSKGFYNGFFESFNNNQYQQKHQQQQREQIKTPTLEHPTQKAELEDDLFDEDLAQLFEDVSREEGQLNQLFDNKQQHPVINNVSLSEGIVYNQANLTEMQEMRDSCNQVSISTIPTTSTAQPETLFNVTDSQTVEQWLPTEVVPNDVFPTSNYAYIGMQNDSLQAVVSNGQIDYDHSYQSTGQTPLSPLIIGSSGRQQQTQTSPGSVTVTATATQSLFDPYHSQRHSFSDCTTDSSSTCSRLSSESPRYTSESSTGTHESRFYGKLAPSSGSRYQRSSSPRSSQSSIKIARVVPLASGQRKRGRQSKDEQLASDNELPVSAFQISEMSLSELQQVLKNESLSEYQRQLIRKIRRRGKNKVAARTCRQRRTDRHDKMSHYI
# [5] = target: T2, Heat shock factor protein 1 (Mus musculus, UniProt P38532); experiment: HSF1 potentiators in luciferase reporter cells, confirmation, cell-based, NIH3T3, luminescence, dose retest (AID 435004); format: functional;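 also: stress induced by proteasome inhibitor MG132 added 30 min after compound; luciferase reporter driven by HSF1 response element in NIH3T3 cells; actives raise luminescence as potentiators of the MG132 stress response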
# T2 sequence (P38532 whole entry): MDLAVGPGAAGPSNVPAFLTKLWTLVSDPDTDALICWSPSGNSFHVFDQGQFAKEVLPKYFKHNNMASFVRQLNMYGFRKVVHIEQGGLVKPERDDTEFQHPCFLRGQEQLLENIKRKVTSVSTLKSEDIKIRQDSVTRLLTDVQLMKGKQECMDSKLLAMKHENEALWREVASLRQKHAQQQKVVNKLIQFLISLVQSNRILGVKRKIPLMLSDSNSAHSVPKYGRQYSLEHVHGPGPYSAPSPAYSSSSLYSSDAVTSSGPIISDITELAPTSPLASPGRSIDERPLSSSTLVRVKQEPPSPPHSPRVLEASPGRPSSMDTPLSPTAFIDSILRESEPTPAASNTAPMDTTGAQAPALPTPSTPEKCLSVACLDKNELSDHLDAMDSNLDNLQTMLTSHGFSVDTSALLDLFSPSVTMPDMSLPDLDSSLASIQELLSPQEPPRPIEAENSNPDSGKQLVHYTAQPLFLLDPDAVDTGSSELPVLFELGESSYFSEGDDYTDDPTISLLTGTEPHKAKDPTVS
# Nonstructural protein 1 = Nonstructural protein 1 (Influenza A virus, UniProt Q194T2); format: functional, Influenza A virus (A/California/07/2009(H1N1))
# [6] = microbe, parasite or virus in culture; format: functional; settings: Mycobacterium tuberculosis
# Cytochrome P450 2C19 = Cytochrome P450 2C19 (Homo sapiens, UniProt P33261); experiment: Cytochrome panel assay with activity outcomes. Panel member name: p450-cyp2c19 Compounds with AC50 equal or less than 10 uM are considered active; format: functional; settings: read-out: AC50
# Cytochrome P450 1A2 = target: T3, Cytochrome P450 1A2 (Homo sapiens, UniProt P05177);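 also: PubChem cytochrome P450 panel assay, CYP1A2 panel member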
# T3 sequence (P05177 whole entry): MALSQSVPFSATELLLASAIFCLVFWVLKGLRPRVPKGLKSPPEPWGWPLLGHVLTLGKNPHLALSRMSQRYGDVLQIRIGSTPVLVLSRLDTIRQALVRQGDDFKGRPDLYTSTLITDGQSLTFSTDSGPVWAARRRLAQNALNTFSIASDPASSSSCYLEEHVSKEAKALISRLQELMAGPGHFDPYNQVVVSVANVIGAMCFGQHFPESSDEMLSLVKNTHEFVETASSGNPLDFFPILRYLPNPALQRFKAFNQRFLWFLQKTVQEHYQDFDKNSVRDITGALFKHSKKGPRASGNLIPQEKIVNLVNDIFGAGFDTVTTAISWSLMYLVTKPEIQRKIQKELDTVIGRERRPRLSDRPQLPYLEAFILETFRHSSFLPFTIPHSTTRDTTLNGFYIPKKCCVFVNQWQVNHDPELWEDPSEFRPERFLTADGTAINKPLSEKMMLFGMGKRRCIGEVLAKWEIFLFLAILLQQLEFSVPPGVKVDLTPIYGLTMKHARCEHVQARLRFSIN
# Large T antigen = Large T antigen (Simian virus 40, UniProt P03070); format: functional, Betapolyomavirus macacae;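 also: Confirmatory-stage PubChem screen for compounds that inhibit SV40 T antigen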
# H9c2 = experiment: cells; format: functional, cell-based; settings: Rattus norvegicus, H9c2, Myocardium;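 also: confirmatory concentration-response retest of ultra-high-throughput screening hits for modulation of myocardial damage; cell death induced by hydrogen peroxide oxidative stress; compound pretreatment for 60 min then peroxide exposure for 2 h; potency is for protecting the cells against peroxide damage rather than for killing them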
# [7] = growth suppression of PTEN-null colon cells, dose response, cell-based, HCT116 PTEN knockout (AID 1047); format: functional;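 also: HCT116 colon tumor cells with PTEN knocked out; cells exposed to compound for 60 hours before readout; potency for loss of cell viability measured by luminescence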
# [8] = growth suppression of beta-catenin-knockout colon cells, dose response, cell-based, HCT116, human colon tumor (AID 1045); format: functional;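 also: HCT116 colon tumor cells with beta catenin knocked out; cells exposed to compound for 60 hours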
# [9] = Luminescence Cell-Based Dose Retest to Confirm Inhibitors of Cancer Stem Cells. [Related pubchem assays (depositor defined):AID2717, AID2721]; format: functional; settings: Homo sapiens
# [10] = ZM109 Env clade C HIV-1 fusion inhibitors, dose response, HeLa effector, CEM target cells, luciferase, cherry-pick (AID 652058); format: functional, cell-based
# [11] = target: T4, Rac GTPase-activating protein 1 (Homo sapiens, UniProt Q9H0H5); experiment: MgcRacGAP GTPase-activating activity inhibitors, confirmation, biochemical, ADP Hunter fluorescence, primary and confirmatory (AID 624330); format: functional
# T4 sequence (Q9H0H5 whole entry): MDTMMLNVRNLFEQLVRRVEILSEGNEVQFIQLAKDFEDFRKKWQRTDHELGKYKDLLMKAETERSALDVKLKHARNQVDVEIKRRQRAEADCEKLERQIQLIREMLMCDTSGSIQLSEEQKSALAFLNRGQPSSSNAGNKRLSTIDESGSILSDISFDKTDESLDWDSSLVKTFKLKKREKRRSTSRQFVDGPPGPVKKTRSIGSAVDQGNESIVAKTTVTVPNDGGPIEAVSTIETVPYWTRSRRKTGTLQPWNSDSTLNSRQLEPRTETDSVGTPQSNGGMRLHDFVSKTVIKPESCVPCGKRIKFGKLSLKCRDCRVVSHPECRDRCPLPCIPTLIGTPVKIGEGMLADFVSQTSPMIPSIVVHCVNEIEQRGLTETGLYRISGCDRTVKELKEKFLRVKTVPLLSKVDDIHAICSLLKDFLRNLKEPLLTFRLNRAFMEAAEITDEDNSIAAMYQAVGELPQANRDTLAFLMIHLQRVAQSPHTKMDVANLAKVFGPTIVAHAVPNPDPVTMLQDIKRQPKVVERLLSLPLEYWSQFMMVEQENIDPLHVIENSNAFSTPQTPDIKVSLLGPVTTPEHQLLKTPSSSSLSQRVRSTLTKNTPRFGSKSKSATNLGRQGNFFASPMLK
# [12] = P. falciparum Dd2 growth inhibitors, dose response, SYBR Green, cherry-picked samples (AID 1159567); format: functional, cell-based
smiles,measurement,setting,value
Cc1ccc(OCCCC(=O)Nc2ccccc2C(F)(F)F)cc1,IC50,[1],> 54 µM (not active)
same,AC50,Cytochrome P450 3A4,15.8 µM (inconclusive)
CCOC(=O)C1(CCOc2ccccc2)CCN(Cc2ccc(OC)c(COC)c2)CC1,AC50,[2],3.87 µM (active)
same,AC50,[3],32.5 µM (active)
same,AC50,[4],20.5 µM (active)
CCCCCCCCNC(=O)C(CCC(=O)OCc1ccccc1)NC(C)=O (stereo not given),IC50,Protein skinhead-1,> 100 µM (inactive)
O=C(COC(=O)Cn1cnc2ccccc21)Nc1ccc2c(c1)C(=O)c1ccccc1C2=O,IC50,[1],6.69 µM (active)
COc1ccc(C(=O)Cn2c(C(=O)/C=C/c3ccccc3)nc3ccccc32)cc1,EC50,[5],4.59 µM (active)
same,AC50,[2],4.47 µM (active)
same,AC50,[3],59.1 µM (active)
O=C(NN=Cc1c(O)ccc2ccccc12)c1ccc[n+](CCO)c1,IC50,Nonstructural protein 1,3.07 µM (active)
CCC(=O)Nc1nc(CC(=O)Nc2ccccc2OC)cs1,IC50,Protein skinhead-1,> 100 µM (inactive)
CCc1ccc2nc(O)c(CN(CCCN3CCOCC3)C(=O)Nc3cccc(Cl)c3)cc2c1,CC50,[6],15 µM (active)
CC(C)(C)CC(=O)NC(=S)N1CCCCCC1,AC50,Cytochrome P450 2C19,39.8 µM (inconclusive)
same,IC50,Protein skinhead-1,> 100 µM (inactive)
same,AC50,Cytochrome P450 1A2,15.8 µM (inconclusive)
same,AC50,Cytochrome P450 3A4,12.6 µM (inconclusive)
CN(C)c1ccc(NC(=O)CN2CCC(N3CCCCC3)CC2)cc1,IC50,Large T antigen,22.9 µM (active)
O=C(c1cc(COc2ccc(F)cc2F)on1)N1CCCC(c2ccccc2)C1 (stereo not given),CC50,[6],> 40 µM (active)
COC(=O)c1ccc(CSc2nc(-c3ccccc3)cs2)o1,IC50,[1],3.49 µM (not active)
COc1ccc(C(c2c(O)cc(C)oc2=O)c2c(O)cc(C)oc2=O)cc1,IC50,[1],1.45 µM (not active)
C=CCn1c(CC(=O)Nc2cccc(OC)c2)nnc1SCC(=O)NC1CCCCC1,IC50,Protein skinhead-1,> 100 µM (inactive)
O=C(Nc1ccc2c(c1)OCO2)c1cccc(F)c1,IC50,Protein skinhead-1,> 100 µM (inactive)
COc1ccc(-c2ccc(Nc3ccc(S(=O)(=O)N4CCCC4)cc3)nn2)cc1OC,IC50,H9c2,> 79 µM (inactive)
same,AC50,[2],20.1 µM (active)
same,AC50,[4],27.6 µM (active)
CCOC(=O)C(C)(C)N(Cc1ccc(Cl)cc1)S(=O)(=O)c1ccc(Cl)c([N+](=O)[O-])c1,EC50,[7],14.7 µM (active)
same,EC50,[8],8.15 µM (active)
same,AC50,[9],2.07 µM (active)
Cc1sc2nc(CN(C(=O)NC3CCCCC3)C3CCCC3)nc(O)c2c1C,CC50,[6],> 40 µM (active)
COc1ccc(NS(=O)(=O)c2ccc3c(c2)n(C)c(=O)n3C)cc1,IC50,Protein skinhead-1,> 100 µM (inactive)
Cn1cc(C(=O)c2ccc(Cl)cc2)cc1-c1nc2ccccc2n1C,CC50,[6],> 40 µM (active)
CCCCCCn1c(COc2ccccc2F)nnc1SCC(=O)N1c2ccccc2NC(=O)C1(C)C,EC50,[7],23.5 µM (active)
same,EC50,[8],26.5 µM (active)
CN1CCN(S(=O)(=O)c2ccc(N(C)Cc3ccc(C(F)(F)F)cc3)c([N+](=O)[O-])c2)CC1,AC50,[2],6.3 µM (active)
same,AC50,[3],45.9 µM (active)
same,AC50,[4],17.6 µM (active)
CCOC(=O)C1=C(COC(=O)c2ccc(Cl)cc2[N+](=O)[O-])NC(=O)NC1C (stereo not given),IC50,Protein skinhead-1,> 100 µM (inactive)
CC(C)NC(=O)CN(C)S(=O)(=O)c1ccc(F)cc1,IC50,Protein skinhead-1,> 100 µM (inactive)
Cc1ccccc1-c1nnc(S)n1/N=C/C=C/c1ccco1,IC50,Large T antigen,53 µM (active)
O=C(Nc1ccc(F)cc1)Nc1ccc2c(c1)[C@@H]1C[C@H](CC(=O)N3CCCCC3)O[C@H](CO)[C@@H]1O2,AC50,[10],62.5 µM (active)
Cc1cc(-c2nnc(S)n2/N=C/C=C/c2ccco2)[nH]n1,IC50,Large T antigen,32.1 µM (active)
CCc1[nH]nc2c1/C(=N\O)CC(c1ccccc1)C2 (stereo not given),EC50,[7],61.3 µM (active)
same,EC50,[8],91.4 µM (active)
O=[N+]([O-])c1cccc(S(=O)(=O)N/N=C/c2ccc(O)cc2)c1,IC50,Large T antigen,10.6 µM (active)
same,IC50,[11],49.5 µM (active)
CCC(/C=C(\O)c1cccnc1)=N\c1ccc(C)c(C)c1,CC50,[6],> 40 µM (active)
O=[N+]([O-])c1cccc(/C=N/Nc2nc(C(Cl)(Cl)Cl)nc3ccccc23)c1,EC50,[7],24.4 µM (active)
same,EC50,[8],25.2 µM (active)
Cc1cccc(S(=O)(=O)N2C[C@@H]3N[C@H](C2)[C@@H]3c2ccc(-c3cccnc3)cc2)c1,AC50,[12],6 µM (active)
CCCN(C)C[C@H]1Oc2cc(C#Cc3cccnc3)ccc2S(=O)(=O)N([C@H](C)CO)C[C@H]1C,AC50,[12],3.19 µM (active)
Cc1ccc(-c2ccc([C@H]3[C@@H](CO)N4C(=O)CN(C(=O)Nc5cccc(F)c5)C[C@H]34)cc2)cc1,AC50,[12],6.09 µM (active)
CCS(=O)(=O)N1CCC2(CC1)CN(Cc1ccc3c(c1)OCO3)[C@H](CO)c1[nH]c3cc(OC)ccc3c12,AC50,[12],5.03 µM (active)
C[C@@H]1CN([C@H](C)CO)C(=O)c2c(c3ccccc3n2C)-c2ccccc2CO[C@@H]1CN(C)C(=O)c1cc(Cl)cc(Cl)c1,AC50,[12],3.06 µM (active)
N#CC(C#N)=C(N)/C(C#N)=C/c1cc(O)c(O)c(O)c1 [TYRPHOSTIN 51],IC50,Large T antigen,19.8 µM (active)
